# In patent US11767310B2, “Nicotinamide RIPK1 inhibitors” (AbbVie Inc., priority 2021, dated 2023):
# Where two headings read alike, the source gives them in different places.
# Tests used:
# Assay in all cases: Kinase binding screen
# ACVR1B = ACVR1B (Homo sapiens (Human), UniProt P36896); conditions: read-out: Percent Control at 100 nM Compound Concentration
# CSNK2A1 = CSNK2A1 (Homo sapiens (Human), UniProt P68400); conditions: read-out: Percent Control at 100 nM Compound Concentration
# NIK = NIK (Homo sapiens (Human), UniProt Q99558); conditions: read-out: Percent Control at 100 nM Compound Concentration
# DLK = DLK (Homo sapiens (Human), UniProt Q12852); conditions: read-out: Percent Control at 100 nM Compound Concentration
# EPHA5 = EPHA5 (Homo sapiens (Human), UniProt P54756); conditions: read-out: Percent Control at 100 nM Compound Concentration
# Sequence of EPHA5 (P54756 25-1037): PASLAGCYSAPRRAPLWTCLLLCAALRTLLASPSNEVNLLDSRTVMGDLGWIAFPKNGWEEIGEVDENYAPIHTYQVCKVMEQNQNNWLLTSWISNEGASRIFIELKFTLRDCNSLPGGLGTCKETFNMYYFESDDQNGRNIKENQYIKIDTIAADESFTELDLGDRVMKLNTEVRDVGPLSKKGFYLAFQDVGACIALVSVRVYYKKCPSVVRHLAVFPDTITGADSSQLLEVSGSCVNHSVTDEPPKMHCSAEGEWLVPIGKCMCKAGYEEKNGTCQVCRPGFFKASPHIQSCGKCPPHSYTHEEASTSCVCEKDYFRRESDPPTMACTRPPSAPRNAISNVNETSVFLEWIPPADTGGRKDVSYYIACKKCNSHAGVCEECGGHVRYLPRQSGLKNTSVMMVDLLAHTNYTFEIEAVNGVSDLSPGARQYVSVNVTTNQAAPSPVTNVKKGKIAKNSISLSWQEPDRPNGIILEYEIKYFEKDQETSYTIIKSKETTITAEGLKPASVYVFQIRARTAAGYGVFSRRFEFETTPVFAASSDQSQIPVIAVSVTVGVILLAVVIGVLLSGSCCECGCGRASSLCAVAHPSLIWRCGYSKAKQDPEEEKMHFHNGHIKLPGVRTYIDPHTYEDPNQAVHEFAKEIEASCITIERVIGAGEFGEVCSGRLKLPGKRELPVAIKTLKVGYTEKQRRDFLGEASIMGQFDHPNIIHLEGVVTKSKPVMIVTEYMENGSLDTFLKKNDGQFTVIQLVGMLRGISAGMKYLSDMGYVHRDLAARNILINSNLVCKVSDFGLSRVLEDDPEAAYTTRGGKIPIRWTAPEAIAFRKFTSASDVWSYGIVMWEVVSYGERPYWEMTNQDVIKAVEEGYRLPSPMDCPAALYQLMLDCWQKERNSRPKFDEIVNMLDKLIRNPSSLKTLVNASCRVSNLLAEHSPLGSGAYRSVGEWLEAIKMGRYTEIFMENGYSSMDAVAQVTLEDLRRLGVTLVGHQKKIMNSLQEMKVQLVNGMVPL
# CASK = CASK (Homo sapiens (Human), UniProt O14936); conditions: read-out: Percent Control at 100 nM Compound Concentration
# ICK = ICK (Homo sapiens (Human), UniProt Q9UPZ9); conditions: read-out: Percent Control at 100 nM Compound Concentration
# ALK(L1196M) = ALK(L1196M) (Homo sapiens (Human), UniProt Q9UM73, L1196M); conditions: read-out: Percent Control at 100 nM Compound Concentration
# PIM1 = PIM1 (Homo sapiens (Human), UniProt P11309); conditions: read-out: Percent Control at 100 nM Compound Concentration
# EGFR(L858R,T790M) = EGFR(L858R,T790M) (Homo sapiens (Human), UniProt P00533, L858R/T790M); conditions: read-out: Percent Control at 100 nM Compound Concentration
# GRK2 = GRK2 (Homo sapiens (Human), UniProt P25098); conditions: read-out: Percent Control at 100 nM Compound Concentration
# FLT3(ITD) = test system: FLT3(ITD); parameters: species or system human
# [1] = target: ABL1(F317I)-nonphosphorylated (Homo sapiens (Human), UniProt P00519, F317I); conditions: read-out: Percent Control at 100 nM Compound Concentration
# Sequence of ABL1(F317I)-nonphosphorylated (P00519 whole entry F317I): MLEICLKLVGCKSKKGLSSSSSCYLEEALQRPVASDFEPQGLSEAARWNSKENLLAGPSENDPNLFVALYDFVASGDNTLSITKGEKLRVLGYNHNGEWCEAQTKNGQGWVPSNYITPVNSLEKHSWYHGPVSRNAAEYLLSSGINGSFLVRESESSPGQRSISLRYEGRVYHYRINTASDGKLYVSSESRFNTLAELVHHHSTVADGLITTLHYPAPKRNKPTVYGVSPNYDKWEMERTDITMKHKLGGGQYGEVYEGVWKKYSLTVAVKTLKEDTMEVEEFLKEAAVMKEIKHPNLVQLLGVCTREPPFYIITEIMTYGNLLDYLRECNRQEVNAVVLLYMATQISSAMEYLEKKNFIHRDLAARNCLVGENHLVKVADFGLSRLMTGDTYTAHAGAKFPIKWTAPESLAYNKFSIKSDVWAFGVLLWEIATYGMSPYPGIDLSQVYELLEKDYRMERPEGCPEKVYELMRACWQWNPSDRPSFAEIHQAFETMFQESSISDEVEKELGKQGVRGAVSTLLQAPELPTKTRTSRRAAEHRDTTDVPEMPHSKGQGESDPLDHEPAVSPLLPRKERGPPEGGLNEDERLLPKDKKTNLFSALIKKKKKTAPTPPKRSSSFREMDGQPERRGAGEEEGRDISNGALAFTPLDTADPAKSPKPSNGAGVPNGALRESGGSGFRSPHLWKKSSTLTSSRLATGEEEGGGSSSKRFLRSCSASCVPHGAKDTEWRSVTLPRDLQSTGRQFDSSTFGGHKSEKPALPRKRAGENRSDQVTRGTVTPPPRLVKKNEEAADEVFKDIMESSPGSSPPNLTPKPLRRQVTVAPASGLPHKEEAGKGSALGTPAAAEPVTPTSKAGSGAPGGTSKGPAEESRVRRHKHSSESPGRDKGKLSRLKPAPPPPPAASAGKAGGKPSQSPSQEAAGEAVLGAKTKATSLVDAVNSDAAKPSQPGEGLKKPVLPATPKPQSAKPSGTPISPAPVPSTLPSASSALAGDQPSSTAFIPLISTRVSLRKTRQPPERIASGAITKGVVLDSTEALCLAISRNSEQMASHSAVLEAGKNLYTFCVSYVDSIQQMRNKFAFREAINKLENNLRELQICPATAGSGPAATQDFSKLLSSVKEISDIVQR
# KIT(V559D,V654A) = KIT(V559D,V654A) (Homo sapiens (Human), UniProt P10721, V559D/V654A); conditions: read-out: Percent Control at 100 nM Compound Concentration
# Sequence of KIT(V559D,V654A) (P10721 26-976 V559D/V654A): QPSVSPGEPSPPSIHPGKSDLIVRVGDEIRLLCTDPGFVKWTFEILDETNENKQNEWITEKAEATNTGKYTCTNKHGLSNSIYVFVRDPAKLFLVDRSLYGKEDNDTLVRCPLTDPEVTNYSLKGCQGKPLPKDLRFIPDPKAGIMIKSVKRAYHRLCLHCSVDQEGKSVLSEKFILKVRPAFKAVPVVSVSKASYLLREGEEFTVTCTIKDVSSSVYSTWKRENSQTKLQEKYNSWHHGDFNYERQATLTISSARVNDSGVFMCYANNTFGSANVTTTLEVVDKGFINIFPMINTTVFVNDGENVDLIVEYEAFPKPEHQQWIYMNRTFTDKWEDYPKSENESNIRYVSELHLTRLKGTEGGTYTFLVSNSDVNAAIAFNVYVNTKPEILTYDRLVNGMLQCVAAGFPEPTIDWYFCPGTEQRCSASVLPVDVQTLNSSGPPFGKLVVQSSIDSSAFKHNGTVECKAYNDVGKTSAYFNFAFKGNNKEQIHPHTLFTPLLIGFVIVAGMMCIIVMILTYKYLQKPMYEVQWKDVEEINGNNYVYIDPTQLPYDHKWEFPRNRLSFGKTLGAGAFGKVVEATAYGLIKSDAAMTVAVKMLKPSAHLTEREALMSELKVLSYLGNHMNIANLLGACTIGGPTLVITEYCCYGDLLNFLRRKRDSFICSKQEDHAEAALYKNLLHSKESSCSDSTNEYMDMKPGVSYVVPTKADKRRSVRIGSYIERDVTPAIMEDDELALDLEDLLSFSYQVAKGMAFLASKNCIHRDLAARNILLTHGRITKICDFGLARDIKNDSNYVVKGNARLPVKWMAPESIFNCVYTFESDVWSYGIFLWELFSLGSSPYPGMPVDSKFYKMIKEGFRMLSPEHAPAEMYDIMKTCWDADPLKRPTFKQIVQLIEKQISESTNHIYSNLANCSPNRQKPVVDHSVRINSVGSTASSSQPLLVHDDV
# MST2 = MST2 (Homo sapiens (Human), UniProt Q13188); conditions: read-out: Percent Control at 100 nM Compound Concentration
# CDK4-cyclinD1 = CDK4-cyclinD1 (Homo sapiens (Human), UniProt P11802); conditions: read-out: Percent Control at 100 nM Compound Concentration
# TTK = TTK (Homo sapiens (Human), UniProt P33981); conditions: read-out: Percent Control at 100 nM Compound Concentration
# BRAF(V600E) = BRAF(V600E) (Homo sapiens (Human), UniProt P15056, V600E); conditions: read-out: Percent Control at 100 nM Compound Concentration
# CSNK2A2 = CSNK2A2 (Homo sapiens (Human), UniProt P19784); conditions: read-out: Percent Control at 100 nM Compound Concentration
# CDK11 = CDK11 (Homo sapiens (Human), UniProt Q9BWU1); conditions: read-out: Percent Control at 100 nM Compound Concentration
# PAK3 = PAK3 (Homo sapiens (Human), UniProt O75914); conditions: read-out: Percent Control at 100 nM Compound Concentration
# CDKL1 = CDKL1 (Homo sapiens (Human), UniProt Q00532); conditions: read-out: Percent Control at 100 nM Compound Concentration
# GRK4 = GRK4 (Homo sapiens (Human), UniProt P32298); conditions: read-out: Percent Control at 100 nM Compound Concentration
# PKN2 = PKN2 (Homo sapiens (Human), UniProt Q16513); conditions: read-out: Percent Control at 100 nM Compound Concentration
# Sequence of PKN2 (Q16513 whole entry): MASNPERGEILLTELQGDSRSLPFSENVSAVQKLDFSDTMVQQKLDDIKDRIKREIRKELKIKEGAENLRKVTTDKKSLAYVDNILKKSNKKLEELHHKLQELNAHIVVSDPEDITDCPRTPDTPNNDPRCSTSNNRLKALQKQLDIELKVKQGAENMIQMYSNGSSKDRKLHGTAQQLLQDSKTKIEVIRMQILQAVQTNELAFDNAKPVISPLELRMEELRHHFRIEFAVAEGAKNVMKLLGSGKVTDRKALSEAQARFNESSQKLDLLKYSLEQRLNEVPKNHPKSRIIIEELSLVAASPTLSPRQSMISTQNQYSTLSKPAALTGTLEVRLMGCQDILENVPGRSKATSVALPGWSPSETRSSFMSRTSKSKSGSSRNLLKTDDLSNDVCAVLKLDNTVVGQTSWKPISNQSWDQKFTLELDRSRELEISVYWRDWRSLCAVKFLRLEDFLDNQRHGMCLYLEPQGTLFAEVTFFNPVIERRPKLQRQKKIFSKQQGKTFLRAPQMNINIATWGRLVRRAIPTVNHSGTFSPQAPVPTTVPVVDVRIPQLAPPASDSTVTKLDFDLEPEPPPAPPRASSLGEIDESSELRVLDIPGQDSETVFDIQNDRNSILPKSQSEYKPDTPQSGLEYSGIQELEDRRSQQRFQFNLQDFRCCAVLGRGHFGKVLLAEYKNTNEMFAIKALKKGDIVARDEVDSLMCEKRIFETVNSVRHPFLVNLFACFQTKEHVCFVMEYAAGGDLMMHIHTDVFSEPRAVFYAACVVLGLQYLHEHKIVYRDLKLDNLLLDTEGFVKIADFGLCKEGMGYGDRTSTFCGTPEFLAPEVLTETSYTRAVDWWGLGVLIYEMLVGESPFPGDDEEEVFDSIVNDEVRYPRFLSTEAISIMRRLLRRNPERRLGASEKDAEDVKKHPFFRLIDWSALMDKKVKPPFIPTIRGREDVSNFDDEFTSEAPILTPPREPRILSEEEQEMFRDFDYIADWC
# MAP4K3 = MAP4K3 (Homo sapiens (Human), UniProt Q8IVH8); conditions: read-out: Percent Control at 100 nM Compound Concentration
# VEGFR2 = VEGFR2 (Homo sapiens (Human), UniProt P35968); conditions: read-out: Percent Control at 100 nM Compound Concentration
# HUNK = HUNK (Homo sapiens (Human), UniProt P57058); conditions: read-out: Percent Control at 100 nM Compound Concentration
# HCK = HCK (Homo sapiens (Human), UniProt P08631); conditions: read-out: Percent Control at 100 nM Compound Concentration
# Sequence of HCK (P08631 whole entry): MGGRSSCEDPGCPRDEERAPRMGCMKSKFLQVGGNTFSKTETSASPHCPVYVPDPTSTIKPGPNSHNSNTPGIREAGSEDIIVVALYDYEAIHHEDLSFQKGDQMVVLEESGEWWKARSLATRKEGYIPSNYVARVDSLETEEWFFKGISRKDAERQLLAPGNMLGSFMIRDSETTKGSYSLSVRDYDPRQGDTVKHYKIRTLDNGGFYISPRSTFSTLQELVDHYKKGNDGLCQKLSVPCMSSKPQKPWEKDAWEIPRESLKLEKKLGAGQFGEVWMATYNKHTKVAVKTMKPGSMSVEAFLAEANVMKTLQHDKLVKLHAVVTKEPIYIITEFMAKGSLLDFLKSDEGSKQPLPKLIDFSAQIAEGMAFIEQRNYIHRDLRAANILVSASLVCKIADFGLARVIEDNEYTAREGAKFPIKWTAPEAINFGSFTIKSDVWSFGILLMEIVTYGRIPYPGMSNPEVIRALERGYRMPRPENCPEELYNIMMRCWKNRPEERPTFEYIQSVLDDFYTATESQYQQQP
# ROCK1 = ROCK1 (Homo sapiens (Human), UniProt Q13464); conditions: read-out: Percent Control at 100 nM Compound Concentration
# Sequence of CSNK2A1 (P68400 whole entry): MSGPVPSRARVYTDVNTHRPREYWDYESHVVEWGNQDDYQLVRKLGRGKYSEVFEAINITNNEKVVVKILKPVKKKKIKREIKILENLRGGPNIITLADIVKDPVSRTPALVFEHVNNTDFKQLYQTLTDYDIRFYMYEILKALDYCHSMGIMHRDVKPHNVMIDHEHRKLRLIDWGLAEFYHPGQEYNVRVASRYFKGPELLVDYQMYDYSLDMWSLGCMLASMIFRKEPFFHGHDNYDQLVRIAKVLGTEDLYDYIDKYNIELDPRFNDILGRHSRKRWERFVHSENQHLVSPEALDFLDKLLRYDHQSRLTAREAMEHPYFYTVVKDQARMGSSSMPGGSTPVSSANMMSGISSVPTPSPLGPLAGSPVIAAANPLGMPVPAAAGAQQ
smiles,measurement,setting,value
"CN(C[C@H](Cc1ccccc1)OP(=O)(O)O)C(=O)c1cncc(C#Cc2cnn(C(F)F)c2)c1 [Example 19, (S)-1-(5-((1-(difluoromethyl)-1H-pyrazol-4-yl)ethynyl)-N-methylnicotinamido)-3-phenylpropan-2-yl dihydrogen phosphate]",remaining activity at 0.1 µM,ACVR1B,100%
same,remaining activity at 0.1 µM,CSNK2A1,98%
same,remaining activity at 0.1 µM,NIK,88%
same,remaining activity at 0.1 µM,DLK,100%
same,remaining activity at 0.1 µM,EPHA5,100%
same,remaining activity at 0.1 µM,CASK,94%
same,remaining activity at 0.1 µM,ICK,93%
same,remaining activity at 0.1 µM,ALK(L1196M),100%
same,remaining activity at 0.1 µM,PIM1,100%
same,remaining activity at 0.1 µM,"EGFR(L858R,T790M)",94%
same,remaining activity at 0.1 µM,GRK2,79%
same,Percent Control at 100 nM Compound Concentration,FLT3(ITD),100%
same,remaining activity at 0.1 µM,[1],100%
same,remaining activity at 0.1 µM,"KIT(V559D,V654A)",100%
same,remaining activity at 0.1 µM,MST2,99%
same,remaining activity at 0.1 µM,CDK4-cyclinD1,97%
same,remaining activity at 0.1 µM,TTK,82%
same,remaining activity at 0.1 µM,BRAF(V600E),97%
same,remaining activity at 0.1 µM,CSNK2A2,100%
same,remaining activity at 0.1 µM,CDK11,92%
same,remaining activity at 0.1 µM,PAK3,100%
same,remaining activity at 0.1 µM,CDKL1,100%
same,remaining activity at 0.1 µM,GRK4,100%
same,remaining activity at 0.1 µM,PKN2,100%
same,remaining activity at 0.1 µM,MAP4K3,100%
same,remaining activity at 0.1 µM,VEGFR2,97%
same,remaining activity at 0.1 µM,HUNK,96%
same,remaining activity at 0.1 µM,HCK,100%
same,remaining activity at 0.1 µM,ROCK1,100%
"CN(C[C@@H](O)Cc1ccccc1)C(=O)c1cncc(C#Cc2cnn(C(F)F)c2)c1 [Example 2, (S)-5-((1-(difluoromethyl)-1H-pyrazol-4-yl)ethynyl)-N-(2-hydroxy-3-phenylpropyl)-N-methylnicotinamide]",remaining activity at 0.1 µM,ACVR1B; ACVR1B,100%
same,remaining activity at 0.1 µM,CSNK2A1; CSNK2A1,98%
same,remaining activity at 0.1 µM,NIK; NIK,84%
same,remaining activity at 0.1 µM,DLK; DLK,100%
same,remaining activity at 0.1 µM,EPHA5; EPHA5,100%
same,remaining activity at 0.1 µM,CASK; CASK,99%
same,remaining activity at 0.1 µM,ICK; ICK,100%
same,remaining activity at 0.1 µM,ALK(L1196M); ALK(L1196M),100%
same,remaining activity at 0.1 µM,PIM1; PIM1,98%
same,remaining activity at 0.1 µM,"EGFR(L858R,T790M); EGFR(L858R,T790M)",83%
same,remaining activity at 0.1 µM,GRK2; GRK2,96%
same,Percent Control at 100 nM Compound Concentration,FLT3(ITD),100%
same,remaining activity at 0.1 µM,[1]; ABL1(F317I)-nonphosphorylated,100%
same,remaining activity at 0.1 µM,"KIT(V559D,V654A); KIT(V559D,V654A)",94%
same,remaining activity at 0.1 µM,MST2; MST2,100%
same,remaining activity at 0.1 µM,CDK4-cyclinD1; CDK4-cyclinD1,100%
same,remaining activity at 0.1 µM,TTK; TTK,100%
same,remaining activity at 0.1 µM,BRAF(V600E); BRAF(V600E),97%
same,remaining activity at 0.1 µM,CSNK2A2; CSNK2A2,100%
same,remaining activity at 0.1 µM,CDK11; CDK11,4.8%
same,remaining activity at 0.1 µM,PAK3; PAK3,71%
same,remaining activity at 0.1 µM,CDKL1; CDKL1,100%
same,remaining activity at 0.1 µM,GRK4; GRK4,100%
same,remaining activity at 0.1 µM,PKN2; PKN2,97%
same,remaining activity at 0.1 µM,MAP4K3; MAP4K3,100%
same,remaining activity at 0.1 µM,VEGFR2; VEGFR2,96%
same,remaining activity at 0.1 µM,HUNK; HUNK,82%
same,remaining activity at 0.1 µM,HCK; HCK,100%
same,remaining activity at 0.1 µM,ROCK1; ROCK1,100%
